Measurements reported in US7179814B2, “Agents for controlling plant pests” (priority 1998, dated 2007).
Where two headings read alike, the source gives them in different places.

Tests used:
[1] = system: Diabrotica balteata larvae in soil; test: Critical concentration test/soil insects, Diabrotica balteata; format: in vivo; conditions: Diabrotica balteata, 168 h; 20.0 ppm in soil, 7 days after infestation; read-out: Kill in %
Protocol: (§1) To produce a suitable preparation of active compound, 1 part by weight of the active compound or the active compound mixture is mixed with the stated amounts of solvent and emulsifier, and the concentrate is diluted with water to the desired concentration.
(§2) The active compound preparation is mixed intimately with soil. Here, the concentration of the active compound in the preparation is almost irrelevant; only the amount by weight of active compound or active compound mixture per volume unit of soil, which is stated in ppm (mg/l), matters.
Soil is filled into 0.5 l pots and these are allowed to stand at 20° C. Immediately after preparation, 5 pre-germinated maize corns are placed into each pot. After 2 days, the test insects are placed into the treated soil. After a further 7 days, the kill in % is determined. 100% means that all test insects have been killed; 0% means that none of the test insects have been killed.

Spodoptera frugiperda = test: Critical concentration test/soil insects, Spodoptera frugiperda; format: in vivo; conditions: 120 h, 20.00 ppm in soil, 5 days after infestation, read-out: Kill in %
Protocol: as §1, §2
Soil is filled into 0.5 l pots and these are allowed to stand at 20° C. Immediately after preparation, 3 pre-germinated maize corns are placed into each pot. After the maize corns have emerged, boring sleeves are placed onto the pots. 9 days after preparation, the maize is populated with the test insects. After a further 5 days, the kill in % is determined. 100% means that all test insects have been killed; 0% means that the number of insects which are still alive is the same as for the untreated control.

[2] = system: Phaedon cochleariae larvae; test: Critical concentration test/root-systemic action, Phaedon cochleariae; format: in vivo; conditions: 72 h, 20.00 ppm in soil, root-systemic, 3 days after infestation, read-out: Kill in %
Protocol: as §1, §2
Soil is filled into 250 ml pots and these are planted with cabbage (Brassica oleracea). The active compound or the active compound combination can thus be taken up by the plant roots from the soil and transported into the leaves.
After 7 days, the leaves are populated with the abovementioned test animals. After a further 3 days, the kill in % is determined. 100% means that all test insects have been killed; 0% means that the number of insects which are still alive is the same as in the untreated control.

Botrytis cinerea = test: Botrytis test (bean)/protective; format: in vivo; conditions: single active compound
Protocol: (§3) To produce a suitable preparation of active compound, 1 part by weight of active compound or active compound combination is mixed with the stated amounts of solvent and emulsifier, and the concentrate is diluted with water to the desired concentration, or a commercial formulation of active compound or active compound combination is diluted with water to the desired concentration.
To test for protective activity, young plants are sprayed with the active compound preparation at the stated application rate. After the spray coating has dried on, 2 small pieces of agar colonized by Botrytis cinerea are placed onto each leaf. The inoculated plants are placed in a dark chamber at approximately 20° C. and 100% relative atmospheric humidity.
2 days after the inoculation, the size of the disease spots on the leaves is evaluated. 0% means an efficacy which corresponds to that of the control, whereas an efficacy of 100% means that no infection is observed.

[3] = system: Erysiphe graminis f.sp. hordei; test: Erysiphe test (barley)/protective; format: in vivo; conditions: single active compound
Protocol: as §3
(§4) To test for protective activity, young plants are sprayed with the preparation of active compound at the stated application rate.
After the spray coating has dried on, the plants are dusted with spores of Erysiphe graminis f.sp. hordei.
(§5) The plants are placed in a greenhouse at a temperature of approximately 20° C. and a relative atmospheric humidity of approximately 80% to promote the development of mildew pustules.
(§6) Evaluation is carried out 7 days after the inoculation. 0% means an efficacy which corresponds to that of the control, whereas an efficacy of 100% means that no infection is observed.

Pyrenophora teres = Pyrenophora teres test (barley)/protective; format: in vivo; conditions: single active compound
Protocol: as §3
(§7) To test for protective activity, young plants are sprayed with the active compound preparation at the stated application rate. After the spray coating has dried on, the plants are sprayed with a conidia suspension of Pyrenophora teres. The plants remain in an incubation cabin at 20° C. and 100% relative atmospheric humidity for 48 hours.
The plants are then placed in a greenhouse at a temperature of approximately 20° C. and a relative atmospheric humidity of approximately 80%.
as §6

Phytophthora infestans = format: in vivo; conditions: single active compound
[4] = system: larvae of the mustard beetle (Phaedon cochleariae); test: Phaedon larvae test (cabbage leaf dip); format: in vivo; conditions: concentration 0.1 %
Protocol: (§8) To produce a suitable preparation of active compound, 1 part by weight of an active compound or an active compound combination is mixed with the stated amounts of solvent and emulsifier, and the concentrate is diluted with water to the desired concentration.
Cabbage leaves (Brassica oleracea) are treated by being dipped into the preparation of active compound of the desired concentration and are populated with larvae of the mustard beetle (Phaedon cochleariae) while the leaves are still moist.
After the desired period of time, the kill in % is determined. 100% means that all beetle larvae have been killed; 0% means that none of the beetle larvae have been killed.

[5] = system: Erysiphe graminis f.sp. tritici; test: Erysiphe test (wheat)/protective; format: in vivo; conditions: single active compound
Protocol: as §3, §4
After the spray coating has dried on, the plants are dusted with spores of Erysiphe graminis f.sp. tritici.
as §5, §6

[6] = system: green rice leaf hopper (Nephotettix cincticeps); test: Nephotettix test (rice seedling dip); format: in vivo
Protocol: as §8
Rice seedlings (Oryza sativa) are treated by being dipped into the active compound preparation of the desired concentration and are populated with the green rice leaf hopper (Nephotettix cincticeps) while the leaves are still moist.
After the desired period of time, the kill in % is determined. 100% means that all the leaf hoppers have been killed; 0% means that none of the leaf hoppers have been killed.

Puccinia recondita = test: Puccinia test (wheat)/protective; format: in vivo; conditions: 62.5 g/ha, 10 days after inoculation
Protocol: as §3
as §7, with “Puccinia recondita.” for “Pyrenophora teres.”
The plants are then placed in a greenhouse at a temperature of approximately 20° C. and a relative atmospheric humidity of 80% to promote the development of rust pustules.
Evaluation is carried out 10 days after the inoculation. 0% means an efficacy which corresponds to that of the control, whereas an efficacy of 100% means that no infection is observed.

[7] = system: caterpillars of the diamondback moth (Plutella xylostella); test: Plutella test (cabbage leaf dip); format: in vivo; conditions: concentration 0.1 %
Protocol: as §8
Cabbage leaves (Brassica oleracea) are treated by being dipped into the preparation of active compound of the desired concentration and are populated with caterpillars of the diamondback moth (Plutella xylostella) while the leaves are still moist.
After the desired period of time, the kill in % is determined 100% means that all caterpillars have been killed; 0% means that none of the caterpillars have been killed.

green peach aphid = test: Myzus test (cabbage leaf dip); format: in vivo, Myzus (green peach aphid); conditions: concentration 0.1 %
Protocol: as §8
Cabbage leaves (Brassica oleracea) which are heavily infested by the green peach aphid are treated by being dipped into the active compound preparation of the desired concentration.
After the desired period of time, the kill in % is determined. 100% means that all aphids have been killed; 0% means that none of the aphids have been killed.

[8] = 62.5 g/ha, 7 days after inoculation

## CC(C)(C)C(O)C(Oc1ccc(-c2ccccc2)cc1)n1cncn1 (stereo not drawn) [bitertanol]
[1]
  pest or weed control at 20 ppm: 0%
Spodoptera frugiperda
  pest or weed control at 20 ppm: 0%
[2]
  pest or weed control at 20 ppm: 0%
Botrytis cinerea; 500 g/ha
  Efficacy in %: 30%
[3]; 18.75 g/ha
  Efficacy in % calculated/found: 0%

## CC(C)(C)C(O)C(Oc1ccc(Cl)cc1)n1cncn1 (stereo not drawn) [triadimenol]
[1]
  pest or weed control at 20 ppm: 0%
Spodoptera frugiperda
  pest or weed control at 20 ppm: 0%
[2]
  pest or weed control at 20 ppm: 0%
Pyrenophora teres; 18.75 g/ha
  Efficacy in % calculated/found: 40%

## CO/C=C(/C(=O)OC)c1ccccc1Oc1cc(Oc2ccccc2C#N)ncn1 [azoxystrobin]
[1]
  pest or weed control at 20 ppm: 0%
Spodoptera frugiperda
  pest or weed control at 20 ppm: 0%
[2]
  pest or weed control at 20 ppm: 0%
Phytophthora infestans; 10 g/ha
  Efficacy in %: 74%
Botrytis cinerea; 40 g/ha
  Efficacy in %: 42%
Pyrenophora teres; 18.75 g/ha
  Efficacy in % calculated/found: 0%

## CO/N=C(/C(=O)OC)c1ccccc1COc1ccccc1C [kresoxim-methyl]
[4]
  Kill in %: 0%
[1]
  pest or weed control at 20 ppm: 0%
[3]; [8]
  Efficacy in % calculated/found: 0%
[5]; 18.75 g/ha
  Efficacy in % calculated/found: 43%
[5]; [8]
  Efficacy in % calculated/found: 79%

## CCCC1COC(Cn2cncn2)(c2ccc(Cl)cc2Cl)O1 (stereo not drawn) [propiconazole]
[6]; concentration 0.004 %
  Kill in %: 0%
[1]
  pest or weed control at 20 ppm: 0%
Spodoptera frugiperda
  pest or weed control at 20 ppm: 0%
[2]
  pest or weed control at 20 ppm: 0%
Phytophthora infestans; 500 g/ha, 3 days after inoculation
  Efficacy in %: 5%
Puccinia recondita
  Efficacy in %: 75%
Pyrenophora teres; [8]
  Efficacy in % calculated/found: 0%

## CN(C)C(=S)SSC(=S)N(C)C [TMTD]
[7]
  Kill in %: 0%
[6]; concentration 0.1 %
  Kill in %: 0%
[1]
  pest or weed control at 20 ppm: 0%

## N#Cc1c[nH]cc1-c1cccc(Cl)c1Cl [fenpiclonil]
[7]
  Kill in %: 0%
Green peach aphid
  Kill in %: 0%
[1]
  pest or weed control at 20 ppm: 0%
Spodoptera frugiperda
  pest or weed control at 20 ppm: 0%
[2]
  pest or weed control at 20 ppm: 0%

## CC(C)(C)C(O)(CCc1ccc(Cl)cc1)Cn1cncn1 (stereo not drawn) [tebuconazole]
[1]
  pest or weed control at 20 ppm: 0%
Spodoptera frugiperda
  pest or weed control at 20 ppm: 0%
[2]
  pest or weed control at 20 ppm: 0%
Pyrenophora teres; [8]
  Efficacy in % calculated/found: 50%
